13 molecules from the SangsterLogP compilation can be followed below.

A short description of the data set: method code SF-AS, from DOI: 10.1080/10826079608005496.
Regarding `CC(C)OC(=O)CS(=O)(=O)c1ccc(Cl)cc1[N+](=O)[O-]`, the logP worked out at 2.24.

Molecule `CC(C)OC(=O)CSc1ccc([N+](=O)[O-])cc1Cl` showed a logP of 3.29. Take `CC(C)OC(=O)CS(=O)(=O)c1ccccc1[N+](=O)[O-]`: the logP stood at 1.6. Turning to `CC(C)OC(=O)CS(=O)(=O)c1ccc([N+](=O)[O-])cc1Cl`, the logP stood at 2.12. Under `CC(C)OC(=O)CSc1ccc([N+](=O)[O-])cc1[N+](=O)[O-]` stands 2.72; under `COC(=O)CSc1ccc([N+](=O)[O-])cc1Cl`, 2.66. Under `COC(=O)CS(=O)(=O)c1ccc(Cl)cc1[N+](=O)[O-]` stands 1.6; under `CC(C)OC(=O)CS(=O)(=O)c1ccc([N+](=O)[O-])cc1`, 1.79. Under `CC(C)OC(=O)CSc1ccc(Cl)cc1[N+](=O)[O-]` stands 3.14; under `CC(C)OC(=O)CSc1ccc([N+](=O)[O-])cc1`, 2.66; under `COC(=O)CSc1ccc(Cl)cc1[N+](=O)[O-]`, 2.5. On to `COC(=O)CS(=O)c1ccc([N+](=O)[O-])cc1[N+](=O)[O-]` (stereo not drawn), for which the logP is 0.79. Under `CC(C)OC(=O)CS(=O)c1ccc([N+](=O)[O-])cc1Cl` (stereo not drawn) stands 2.04.
